The source of these data is publication PMC9792171, “Design and synthesis of new thiazolidinone/uracil derivatives as antiproliferative agents targeting EGFR and/or BRAF^V600E” (Frontiers in Chemistry, 2022).

Each structure is given as a SMILES string.

Data set [1] concerns the target T1, EGFR (Homo sapiens, UniProt P00533).
T1 construct: EGFR cytoplasmic domain (EGFR-CD, amino acids 645–1186); His6 (N); made in house; host or cells: Sf-9 insect cells (baculovirus; pBlueBacHis2B and pFASTBacHTc)
Nature of the data set: EGFR inhibitory assay (EGFR-TK, DELFIA/time-resolved fluorometry). It counts as biochemical. The note with it: for IC50: read-out: EGFR inhibition IC50 ± SEM. The method, then: 5ʹ upstream to the EGFR sequence comprised a sequence that encoded (His)6. Sf-9 cells were infected for 72h for protein expression. The pellets of Sf-9 cells were solubilized in a buffer containing sodium vanadate (100 µM), aprotinin (10 µg/mL), triton (1%), HEPES buffer (50mM), ammonium molybdate (10 µM), benzamidine HCl (16 µg/mL), NaCl (10 mM), leupeptin (10 µg/mL) and pepstatin (10 µg/mL) at 0°C for 20 min at pH 7.4, followed by centrifugation for 20 min. To eliminate the non-specifically bound material, a Ni-NTA super flow packed column was used to pass through and wash the crude extract supernatant first with 10 mM and then with 100 mM imidazole. Histidine-linked proteins were first eluted with 250 and then with 500 mM imidazole after dialysis against NaCl (50 mM), HEPES (20 mM), glycerol (10%) and 1 µg/mL each of aprotinin, leupeptin and pepstatin for 120 min. The purification was performed either at 4 °C or on ice. To record autophosphorylation level, EGFR kinase assay was carried out based on DELFIA/Time-Resolved Fluorometry. The compounds were first dissolved in DMSO absolute, after dilution to appropriate concentration using HEPES (25 mM) at pH 7.4. Each compound (10 µL) was incubated with recombinant enzyme (10 µL, 5 ng for EGFR, 1:80 dilution in 100 mM HEPES) for 10 min at 25 °C, after the addition of 5X buffer (10 µL, containing 2 mM MnCl2, 100 µM Na3VO4, 20 mM HEPES and 1 mM DTT) and ATP-MgCl2 (20 µL, containing 0.1 mM ATP and 50 mM MgCl2) and incubation for 1h. The negative and positive controls were included in each plate by the incubation of enzyme either with or without ATP-MgCl2. The liquid was removed after incubation and the plates were washed thrice using wash buffer. Europium-tagged antiphosphotyrosine antibody (75 µL, 400 ng) was added to each well followed by incubation of 1h and then washing of the plates using buffer. The enhancement solution was added to each well and the signal was recorded at excitation and emission wavelengths of 340 at 615 nm. The autophosphorylation percentage inhibition by compounds was calculated using the following equation: […]

Data set [2] concerns the target T2, BRAF^V600E (Mus musculus, UniProt P28028, V585E).
T2 construct: Mouse full-length GST-tagged BRAF^V600E (7.5 ng, Invitrogen, PV3849); GST; purchased Invitrogen PV3849
The experiment in a line: BRAF^V600E inhibitory assay (V600E mutant BRAF kinase assay). It counts as biochemical. The note with it: read-out: BRAF^V600E inhibition IC50 ± SEM. The method, then: Mouse full-length GST-tagged BRAF^V600E (7.5 ng, Invitrogen, PV3849) was pre-incubated with drug (1 µL) and assay dilution buffer (4 µL) for 60 min at 25 °C. In assay dilution buffer, a solution (5 µL) containing MgCl2 (30 mM), ATP (200 µM), recombinant human full length (200 ng) […] N-terminal His-tagged MEK1 (Invitrogen) was added to start the assay, subsequent to incubation for 25 min at 25 °C. The assay was stopped using 5X protein denaturing buffer (LDS) solution (5 µL). To further denature the protein, heat (70° C) was applied for 5 min. […] 10 µL of each reaction was loaded into the precast plates and electrophoresis was allowed to proceed. After completion of electrophoresis, the front part of the precast gel plate (holding hot ATP) was cut and afterwards cast-off. The dried gel was developed using a phosphor screen. […] To study the effect of compounds on cell-based pERK1/2 activity in cancer cells, commercially available ELISA kits (Invitrogen) were used according to manufacturer’s instructions.

For data set [3], the system named is Panc-1 (pancreas cancer cell line). The experiment in a line: Antiproliferative MTT assay, Panc-1. The format is cell-based. The following applies: Homo sapiens; Panc-1, MTT; read-out: Antiproliferative activity IC50 ± SEM (nM) Panc-1. The method, then:
Using the MTT assay ([Abdelrahman et al., 2017]; [El-Sherief et al., 2018]) and doxorubicin as the reference drug, 3a-f and 5a-l were tested for antiproliferative activity against four human cancer cell lines: Panc-1 (pancreas cancer cell line), MCF-7 (breast cancer cell line), HT-29 (colon cancer cell line), and A-549 (epithelial cancer cell line).
To explore the antiproliferative potential of compounds MTT assay was performed according to previously reported procedure (El-Sherief, H.A.M., et al., 2018; Abdelrahman, M. H., et al., 2017) using different cell lines to explore the antiproliferative potential of compounds propidium iodide fluorescence assay was performed using different cell lines. To calculate the total nuclear DNA, a fluorescent dye (propidium iodide, PI) is used which can attach to the DNA, thus offering a quick and precise technique. PI cannot pass through the cell membrane and its signal intensity can be considered as directly proportional to quantity of cellular DNA. Cells whose cell membranes are damaged or have changed permeability are counted as dead ones. The assay was performed by seeding the cells of different cell lines at a density of 3000-7500 cells/well (in 200µl medium) in culture plates followed by incubation for 24h at 37 °C in humidified 5% CO2/95% air atmospheric conditions. The medium was removed; the compounds were added to the plates at 10 µM concentrations (in 0.1% DMSO) in triplicates, followed by incubation for 48 h. DMSO (0.1%) was used as control. After incubation, medium was removed followed by the addition of PI (25 µl, 50µg/mL in water/medium) to each well of the plates. At -80 °C, the plates were allowed to freeze for 24 h, followed by thawing at 25 °C. A fluorometer (Polar-Star BMG Tech) was used to record the readings at excitation and emission wavelengths of 530 and 620 nm for each well. The percentage cytotoxicity of compounds was calculated using the following formula: […]
A general note: Tetrazolium dyes change colour on reduction, which living cells bring about.

T1 sequence (P00533 669-1210): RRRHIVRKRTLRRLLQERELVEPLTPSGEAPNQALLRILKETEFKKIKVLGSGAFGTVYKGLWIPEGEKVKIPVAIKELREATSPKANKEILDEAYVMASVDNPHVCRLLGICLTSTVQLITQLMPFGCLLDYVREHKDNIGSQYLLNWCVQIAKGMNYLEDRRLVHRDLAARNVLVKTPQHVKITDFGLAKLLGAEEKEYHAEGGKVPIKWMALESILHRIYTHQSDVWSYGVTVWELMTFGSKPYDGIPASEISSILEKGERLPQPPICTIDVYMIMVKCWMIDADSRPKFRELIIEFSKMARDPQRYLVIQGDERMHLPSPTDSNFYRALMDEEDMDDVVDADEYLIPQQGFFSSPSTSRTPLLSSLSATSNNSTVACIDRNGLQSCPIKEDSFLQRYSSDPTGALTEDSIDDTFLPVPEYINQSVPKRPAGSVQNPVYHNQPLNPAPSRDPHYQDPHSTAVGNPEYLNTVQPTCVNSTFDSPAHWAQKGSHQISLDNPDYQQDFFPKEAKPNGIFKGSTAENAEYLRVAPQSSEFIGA
T2 sequence (P28028 whole entry V585E): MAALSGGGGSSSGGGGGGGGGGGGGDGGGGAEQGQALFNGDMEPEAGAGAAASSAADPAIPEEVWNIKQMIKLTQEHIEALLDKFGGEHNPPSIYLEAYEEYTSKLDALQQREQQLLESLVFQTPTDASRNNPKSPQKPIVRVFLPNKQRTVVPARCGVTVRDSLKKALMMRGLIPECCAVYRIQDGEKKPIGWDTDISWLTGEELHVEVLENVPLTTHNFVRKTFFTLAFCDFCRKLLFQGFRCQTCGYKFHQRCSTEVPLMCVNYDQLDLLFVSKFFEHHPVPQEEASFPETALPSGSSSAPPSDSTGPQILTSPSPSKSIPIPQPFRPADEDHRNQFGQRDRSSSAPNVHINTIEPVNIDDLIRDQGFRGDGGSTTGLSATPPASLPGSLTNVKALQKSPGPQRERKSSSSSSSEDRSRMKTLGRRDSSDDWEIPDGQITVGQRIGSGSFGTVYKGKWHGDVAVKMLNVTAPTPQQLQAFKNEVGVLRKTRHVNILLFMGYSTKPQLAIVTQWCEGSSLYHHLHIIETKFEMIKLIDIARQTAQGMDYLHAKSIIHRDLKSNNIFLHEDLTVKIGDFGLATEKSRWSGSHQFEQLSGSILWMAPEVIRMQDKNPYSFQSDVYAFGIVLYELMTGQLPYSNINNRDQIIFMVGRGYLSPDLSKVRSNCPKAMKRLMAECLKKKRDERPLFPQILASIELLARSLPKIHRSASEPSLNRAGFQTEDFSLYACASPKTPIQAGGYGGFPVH

With `CCOC(=O)/C=C1\S/C(=N\c2c[nH]c(=O)[nH]c2=O)N(c2ccc(C)cc2)C1=O` [Compound 5b, (Z)-Ethyl-2-((Z)-2-((2,4-dioxo-1,2,3,4-tetrahydropyrimidin-5-yl)imino)-4-oxo-3-(p-tolyl)thiazolidin-5-ylidene)acetate], the concentration for half-maximal inhibition (IC50) worked out at 0.091 ± 0.007 µM in data set [1], 0.093 ± 0.008 µM in data set [2] and 1400 ± 100 nM in data set [3].
`COC(=O)/C=C1\S/C(=N\c2c[nH]c(=O)[nH]c2=O)N(c2cccc(OC)c2)C1=O` [Compound 5i, (Z)-Methyl-2-((Z)-2-((2,4-dioxo-1,2,3,4-tetrahydropyrimidin-5-yl)imino)-3-(3-methoxyphenyl)-4-oxothiazolidin-5-ylidene)acetate] returned a melting point of 322 to 324 °C. In data set [1], the half-maximal inhibitory concentration (IC50) was 0.096 ± 0.007 µM. In addition, the IC50 in data set [2] amounted to 0.122 ± 0.012 µM. In addition, in data set [3], the IC50 was determined as 1500 ± 100 nM.
In the case of `COC(=O)/C=C1\S/C(=N\c2c[nH]c(=O)[nH]c2=O)N(c2ccc(C)cc2)C1=O` [Compound 5h, (Z)-Methyl-2-((Z)-2-((2,4-dioxo-1,2,3,4-tetrahydropyrimidin-5-yl)imino)-4-oxo-3-(p-tolyl)-thiazolidin-5-ylidene)acetate], the melting point was 308 to 310 °C. Also, in data set [1], the IC50 was determined as 0.112 ± 0.01 µM. The 50% inhibitory concentration (IC50) in data set [2] was 0.137 ± 0.012 µM. In data set [3], the IC50 turned out to be 1800 ± 100 nM.
For `CCOC(=O)/C=C1\S/C(=N\c2c[nH]c(=O)[nH]c2=O)N(c2cccc(OC)c2)C1=O` [Compound 5c, (Z)-Ethyl-2-((Z)-2-((2,4-dioxo-1,2,3,4-tetrahydropyrimidin-5-yl)imino)-3-(3-methoxyphenyl)-4-oxo-thiazolidin-5-ylidene)acetate], the melting point lay within 330 to 332 °C. In data set [1], the IC50 was 0.115 ± 0.01 µM. Also, the concentration for half-maximal inhibition (IC50) in data set [2] was 0.107 ± 0.01 µM. Further, in data set [3], the half-inhibitory concentration (IC50) amounted to 1900 ± 200 nM.
Take `COC(=O)/C=C1\S/C(=N\c2c[nH]c(=O)[nH]c2=O)N(Cc2ccccc2)C1=O` [Compound 5j, (Z)-Methyl-2-((Z)-3-benzyl-2-((2,4-dioxo-1,2,3,4-tetrahydropyrimidin-5-yl)imino)-4-oxothiazolidin-5-ylidene)acetate]: the melting point was 306 to 308 °C. Moreover, the concentration for half-maximal inhibition (IC50) in data set [1] was found to be 0.087 ± 0.005 µM. Also, the IC50 in data set [2] was found to be 0.115 ± 0.012 µM. Besides, in data set [3], the IC50 was 1200 ± 100 nM.
`COc1cccc(NC(=S)Nc2c[nH]c(=O)[nH]c2=O)c1` [Compound 3c, 1-(2,4-Dioxo-1,2,3,4-tetrahydropyrimidin-5-yl)-3-(3-methoxyphenyl)thiourea] displayed a melting point of 350 to 352 °C. Besides, the “fold less potent than erlotinib (EGFR IC50)” value in data set [1] (ratio of EGFR IC50 values) is given as 1.6 fold. For the same compound, the IC50 in data set [1] was 0.125 ± 0.011 µM. The IC50 in data set [2] is 0.148 ± 0.012 µM. Further, the half-maximal inhibitory concentration (IC50) in data set [3] came to 2100 ± 200 nM.

What is called IC50 is the concentration that gives 50% inhibition. The melting point is the temperature of the solid-liquid transition.
